Experimental data published in article PMC11091889, “Silver Organometallics that are Highly Potent Thioredoxin and Glutathione Reductase Inhibitors: Exploring the Correlations of Solution Chemistry with the Strong Antibacterial Effects” (ACS Infectious Diseases, 2024).
Read-outs that look alike come from different tables or passages of the source.

Experiments:
[1] = tested on: A. baumannii (DSM 30007, ATCC 19606); assay: Broth microdilution antibacterial assay; format: cell-based, Acinetobacter baumannii; settings: for MIC A. baumannii / MIC A. baumannii (value in brackets) / MIC: 22 h; for EC50: read-out: EC50 A. baumannii
Protocol: (§1) The antibacterial effect of the silver NHC complexes and selected ligands was evaluated in two Gram-positive [Enterococcus faecium, methicillin resistant S. aureus, (MRSA)] and in four Gram-negative (Acinetobacter baumannii, Escherichia coli, Klebsiella pneumoniae, and Pseudomonas aeruginosa) pathogenic bacterial strains using broth microdilution assays. The resulting minimal inhibitory concentrations (MICs, Table 2) and EC50 (Table S6) were determined by a curve fitting procedure. Silver nitrate (AgNO3), SSD, and various antibiotics were used as references.
(§2) The following strains of ESKAPE panel were utilized and maintained at 37 °C in MHB (21 g/L Müller Hinton broth, pH 7.4) or TSY (30 g/L trypticase soy broth, 3 g/L yeast extract, pH 7.0–7.2) media: A. baumannii (DSM 30007, ATCC 19606), E. coli (DSM1116, ATCC 9637), K. pneumoniae (DSM 11678, ATCC33495), P. aeruginosa PA7 (DSM 24068) in MHB; E. faecium (DSM 20477, ATCC 19434), and S. aureus MRSA (DSM 11822, ICB 25701) in TSY. MIC values were determined following a standardized protocol in broth microdilution assays. The compounds and reference substances (AgNO3 and SSD) were serially diluted from 64 to 1 μg/mL. Starting inocula of 2–8 × 10^5 CFU/mL in MHB or TSY media at 37 °C were used, and serial dilutions were carried out in 96-well microtiter plates in duplicate. After incubation of the plates for 22 h at 37 °C, the absorbance at 600 nm was measured using The Spark multimode microplate reader (Tecan Trading AG). The MIC values for the tested compounds were determined in three independent experiments and presented in μM with standard errors and also in μg/mL. Amikacin (P. aeruginosa), linezolid (S. aureus), and ciprofloxacin (all other strains) served as positive controls. The MIC and EC50 values were determined by curve fitting with Sigma Plot. To determine the effect of the culture medium on the activity of silver compounds, the assay was performed using MHB, TSY, or DMEM (Gibco). To observe the effect of individual components of TSY medium, antibacterial tests were performed using MHB with addition of tryptone (17 g/L) or yeast extract (3 g/L, both were purchased from Sigma).

[2] = tested on: P. aeruginosa PA7 (DSM 24068); assay: microbe, parasite or virus in culture; format: cell-based, Pseudomonas aeruginosa; settings: for MIC P. aeruginosa / MIC P. aeruginosa (value in brackets): 22 h; for MIC: DSM24068, 22 h
Protocol: as §1, §2

[3] = tested on: E. faecium (DSM 20477, ATCC 19434); assay: Broth microdilution antibacterial assay; format: cell-based, Enterococcus faecium; settings: for MIC E. faecium / MIC E. faecium (value in brackets) / MIC: 22 h
Protocol: as §1, §2

[4] = tested on: E. coli (DSM1116, ATCC 9637); assay: microbe, parasite or virus in culture; format: cell-based, Escherichia coli; settings: n = 3, MHB; for MIC E. coli / MIC E. coli (value in brackets) / MIC: 22 h
Protocol: as §1, §2

[5] = Conductometry: molar conductivity of silver complexes in DMSO; format: physicochemical; settings: 1.0 mM in DMSO, calculated as monocarbene (NHC)AgX
Protocol: Since both the neutral monocarbene and the ionic biscarbene form of the complexes may exist in various proportions in the solution, conductometry studies were performed to reveal the dominant structure. The molar conductivity of 1.0 mM solutions of each complex in DMSO was determined after different periods up to 24 h using AgNO3 as 1:1 electrolyte reference (see Table 1). According to the literature, the expected range of molar conductivity for 1:1 electrolytes in DMSO is 35–90 S cm^2 mol^–1.[45],[46]
Conductivity measurements were performed using an Apera Instruments EC9500 conductivity meter. Solutions (as indicated, otherwise 1.0 mM) of all compounds were prepared using freshly distilled DMSO with a specific electrical conductivity of ≤3 × 10^–8 S cm^–1. The conductivities were measured at 25 ± 2 °C immediately after complete dissolution and after 24 h.

[6] = tested on: K. pneumoniae (DSM 11678, ATCC33495); assay: Broth microdilution antibacterial assay; format: cell-based, Klebsiella pneumoniae; settings: for MIC K. pneumoniae / MIC K. pneumoniae (value in brackets) / MIC: 22 h; for EC50: read-out: EC50 K. pneumoniae
Protocol: as §1, §2

[7] = tested on: S. aureus MRSA (DSM 11822, ICB 25701); assay: microbe, parasite or virus in culture; format: cell-based, methicillin resistant S. aureus; settings: for MIC MRSA / MIC MRSA (value in brackets) / MIC: 22 h; for EC50: read-out: EC50 MRSA
Protocol: as §1
The importance of the culture medium used in antibacterial assays has been pointed out for antibiotics and in particular for silver.[53]−[55] In our recent studies, tryptic soy yeast (TSY) broth has been used for growing Gram-positive bacteria. Two components thereof, tryptone and yeast extract, have been reported to affect the antibacterial activity of silver nitrate.[55] Moreover, such an effect was also observed for other media containing at least one of those components.[11],[53] […] Silver nitrate served as a reference, and three different growth media were studied, namely, Müller-Hinton Broth (MHB, commonly used for Gram-negative bacteria), TSY broth (commonly used for Gram-positive bacteria), and DMEM supplemented with 10% FCS (commonly used for growth of mammalian and human cells).
as §2

[8] = mean ± standard error, n = 3, MHB
[9] = mean ± standard error, n = 3, MHB, read-out: EC50 P. aeruginosa
[10] = mean ± standard error, n = 3, TSY
[11] = mean ± standard error, n = 3, TSY, read-out: EC50 E. faecium

| SMILES | MIC A. baumannii [1, 8] [µM] | EC50 [1, 8] [µM] | MIC A. baumannii (value in brackets) ([1]; n = 3, MHB) [µg/mL] | MIC P. aeruginosa [2, 8] [µM] | EC50 [2, 9] [µM] | MIC P. aeruginosa (value in brackets) ([2]; n = 3, MHB) [µg/mL] | MIC E. faecium [3, 10] [µM] | EC50 [3, 11] [µM] | MIC E. faecium (value in brackets) ([3]; n = 3, TSY) [µg/mL] | EC50 ([4]; mean ± standard error) [µM] | MIC E. coli ([4]; mean ± standard error) [µM] | MIC E. coli (value in brackets) [4] [µg/mL] | Molar conductivity ΛM ([5]; 1 h after dissolution) [S cm^2 mol^–^1] | Molar conductivity ΛM ([5]; 24 h after dissolution) [S cm^2 mol^–^1] | MIC K. pneumoniae [6, 8] [µM] | EC50 [6, 8] [µM] | MIC K. pneumoniae (value in brackets) ([6]; n = 3, MHB) [µg/mL] | MIC MRSA [7, 10] [µM] | EC50 [7, 10] [µM] | MIC MRSA (value in brackets) ([7]; n = 3, TSY) [µg/mL] | other results |
| --- | --- | --- | --- | --- | --- | --- | --- | --- | --- | --- | --- | --- | --- | --- | --- | --- | --- | --- | --- | --- | --- |
| Cn1[c]([Ag][Cl])[n+](Cc2ccccn2)c2ccccc21 [1a] | 14.6 ± 3.6 | 1.7 ± 0.4 | 5 | 10.9 ± 0.0 | 5.7 ± 0.8 | 4 | 175 ± 0.0 | 145 ± 2.3 | 64 | 53.3 ± 8.6 | 116 ± 29 | 43 | 2.88 | 3.05 | 18.2 ± 3.6 | 8.5 ± 1.2 | 7 | 175 ± 0.0 | 146 ± 2.8 | 64 | – |
| Cn1[c](=[Ag][Br])n(Cc2ccccn2)c2ccccc21 [1b, Bromido (1-Methyl-3-(pyridin-2-ylmethyl)-benzimidazol-2-ylidene) Silver(I)] | 16.2 ± 3.2 | 2.6 ± 0.3 | 7 | 25.9 ± 6.5 | 10.9 ± 3.9 | 11 | 156 ± 0.0 | 129 ± 2.8 | 64 | 71.3 ± 6.7 | 103 ± 25 | 43 | 4.75 | 4.82 | 16.2 ± 3.2 | 10 ± 2.2 | 7 | 156 ± 0.0 | 134 ± 14 | 64 | – |
| CC(C)[n+]1cn(Cc2ccccn2)c2ccccc21.[Cl-] [L3a, 1-Isopropyl-3-(pyridin-2-ylmethyl)-benzimidazolium Chloride] | – | – | – | – | – | – | – | – | – | – | – | – | – | – | – | – | – | – | – | – | MIC ([1]; Acinetobacter baumannii, read-out: MIC A. baumannii): > 250 µM; MIC ([1]; Acinetobacter baumannii, read-out: MIC A. baumannii (value in brackets)): > 128 µg/mL; EC50 ([1]; Acinetobacter baumannii): > 250 µM; MIC ([2]; Pseudomonas aeruginosa, read-out: MIC P. aeruginosa (value in brackets), n = 3, MHB, 22 h): > 128 µg/mL; MIC ([2]; Pseudomonas aeruginosa, read-out: MIC P. aeruginosa, mean ± standard error, n = 3, MHB, 22 h): > 250 µM; EC50 ([2]; Pseudomonas aeruginosa, DSM24068, read-out: EC50 P. aeruginosa, mean ± standard error, n = 3, MHB): > 250 µM; MIC ([3]; Enterococcus faecium, read-out: MIC E. faecium): > 250 µM; MIC ([3]; Enterococcus faecium, read-out: MIC E. faecium (value in brackets)): > 128 µg/mL; EC50 ([3]; Enterococcus faecium, read-out: EC50 E. faecium, mean ± standard error, n = 3, TSY): > 250 µM; EC50 ([4]; Escherichia coli, mean ± standard error): > 250 µM; MIC ([4]; Escherichia coli, mean ± standard error, read-out: MIC E. coli): > 250 µM; MIC ([4]; Escherichia coli, read-out: MIC E. coli (value in brackets)): > 128 µg/mL; MIC ([6]; Klebsiella pneumoniae, read-out: MIC K. pneumoniae): > 250 µM; MIC ([6]; Klebsiella pneumoniae, read-out: MIC K. pneumoniae (value in brackets)): > 128 µg/mL; EC50 ([6]; Klebsiella pneumoniae): > 250 µM; MIC ([7]; Staphylococcus aureus, read-out: MIC MRSA): > 250 µM; MIC ([7]; Staphylococcus aureus, read-out: MIC MRSA (value in brackets)): > 128 µg/mL; EC50 ([7]; Staphylococcus aureus): > 250 µM |
